Assay: polymorphic stability on drying or wetting (XRPD, Karl Fischer water content)
Assay type: physicochemical
Conditions: water content between 0.5% and 7% (Karl Fisher)
Description: Advantageously, the pseudo-crystalline rifaximin is stable at a water content comprised between 0.5% and 7%. In contrast to the rifaximin of the state of the art, transition from one polymorphic form to another is not observed when the water content varies between 0.5% and 7%. […] Water content is typically assessed according to the Karl Fisher method.
In the processes of the present invention, the absence of salts (methylaminopyridine hydrochloride and ascorbic acid salts) and the final pH of the solution yield a pseudo-crystalline form of rifaximin which is stable at various water contents comprised between 0.5% and 7%. This pseudo-crystalline form is stable upon drying or wetting with water and transition between different polymorphic forms depending on the water content is not observed. The rifaximin obtained by the process of the present invention is polymorphically stable.
Advantageously, the X-ray diffractogramm of the rifaximin according to the present invention is not modified when the water content varies between 0.5% and 7%.
The diffractograms have been carried out by using the SIEMENS D5000 instrument and under the following working conditions: • Radiation used: Kα of Copper (λ=1.5406 Å) • Tension of the generator: KV 35 • Current of the generator: 30 mA • Starting and final angular 2θ value: from 2.0° to 60.0°.

- polymorphic stability (transition to another polymorphic form): stable
Compound: CO[C@H]1/C=C/O[C@@]2(C)Oc3c(C)c(O)c4c(O)c(c5c(nc6cc(C)ccn65)c4c3C2=O)NC(=O)/C(C)=C\C=C\[C@H](C)[C@H](O)[C@@H](C)[C@@H](O)[C@@H](C)[C@H](OC(C)=O)[C@@H]1C [pseudo-crystalline rifaximin, rifaximin]

Reference: patent US9150590B2, “Process for the synthesis of rifaximin and a new pseudo-crystalline form of rifaximin obtained thereby” (Friulchem Spa, priority 2011, dated 2015)
